Results: ChEMBL document CHEMBL1201862, “PubChem BioAssay data set” (2004)
Active and inactive are the calls of the source.

Assays:
[1] = biological target: Heat shock protein HSP 90-alpha (Homo sapiens, UniProt P07900); type: functional, organism-based
Cytochrome P450 2D6 = Cytochrome P450 2D6 (Homo sapiens, UniProt P10635);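 further: CYP2D6 member of a cytochrome P450 panel assay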
Cytochrome P450 1A2 = biological target: T1, Cytochrome P450 1A2 (Homo sapiens, UniProt P05177);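 further: PubChem cytochrome P450 panel assay, CYP1A2 panel member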
T1 sequence (P05177 whole entry): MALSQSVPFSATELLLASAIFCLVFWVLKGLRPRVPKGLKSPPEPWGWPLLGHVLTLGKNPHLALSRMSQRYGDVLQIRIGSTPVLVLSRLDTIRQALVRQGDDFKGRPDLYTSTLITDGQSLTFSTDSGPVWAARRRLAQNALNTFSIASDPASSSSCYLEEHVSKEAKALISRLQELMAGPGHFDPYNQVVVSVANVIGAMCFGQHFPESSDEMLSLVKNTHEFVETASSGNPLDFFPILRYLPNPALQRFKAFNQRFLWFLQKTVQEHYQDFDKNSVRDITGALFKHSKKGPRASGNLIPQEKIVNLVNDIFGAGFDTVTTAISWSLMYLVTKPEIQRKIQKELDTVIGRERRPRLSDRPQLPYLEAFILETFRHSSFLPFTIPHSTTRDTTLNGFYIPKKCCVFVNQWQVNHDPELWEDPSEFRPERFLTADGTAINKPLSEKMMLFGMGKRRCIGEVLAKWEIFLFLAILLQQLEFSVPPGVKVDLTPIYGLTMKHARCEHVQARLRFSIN

Cytochrome P450 2C9 = Cytochrome P450 2C9 (Homo sapiens, UniProt P11712)
Sequence of Cytochrome P450 2C9 (P11712 whole entry): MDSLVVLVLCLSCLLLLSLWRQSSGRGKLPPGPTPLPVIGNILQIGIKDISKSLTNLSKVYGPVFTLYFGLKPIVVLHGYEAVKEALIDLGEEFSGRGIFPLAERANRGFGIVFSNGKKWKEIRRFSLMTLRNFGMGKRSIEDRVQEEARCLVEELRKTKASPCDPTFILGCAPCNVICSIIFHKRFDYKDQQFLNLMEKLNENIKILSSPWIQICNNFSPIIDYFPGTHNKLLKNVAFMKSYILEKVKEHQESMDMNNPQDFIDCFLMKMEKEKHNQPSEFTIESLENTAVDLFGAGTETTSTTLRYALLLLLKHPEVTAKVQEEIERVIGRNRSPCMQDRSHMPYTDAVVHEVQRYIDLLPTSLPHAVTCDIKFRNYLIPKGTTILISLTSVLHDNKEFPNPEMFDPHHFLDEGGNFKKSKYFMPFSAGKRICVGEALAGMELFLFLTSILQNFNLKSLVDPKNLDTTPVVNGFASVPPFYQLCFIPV

[2] = biological target: T2, Calpain-2 catalytic subunit (Sus scrofa, UniProt P43367); experiment: m-calpain protease blockers, concentration series – biochemical, fluorogenic peptide substrate, dose response (AID 1420); type: functional
T2 sequence (P43367 whole entry): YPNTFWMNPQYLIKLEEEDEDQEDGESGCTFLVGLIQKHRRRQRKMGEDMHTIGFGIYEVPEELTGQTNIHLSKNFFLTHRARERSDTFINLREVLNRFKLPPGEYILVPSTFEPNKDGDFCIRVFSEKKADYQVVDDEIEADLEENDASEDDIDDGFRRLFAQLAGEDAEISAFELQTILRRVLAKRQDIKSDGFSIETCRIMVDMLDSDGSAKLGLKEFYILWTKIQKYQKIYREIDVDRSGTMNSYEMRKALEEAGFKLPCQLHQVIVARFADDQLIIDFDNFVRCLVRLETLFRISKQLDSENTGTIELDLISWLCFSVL

H9c2 = experiment: cells; type: functional, cell-based; conditions: Rattus norvegicus, H9c2, Myocardium;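 further: confirmatory concentration-response retest of ultra-high-throughput screening hits for modulation of myocardial damage; cell death induced by hydrogen peroxide oxidative stress; compound pretreatment for 60 min then peroxide exposure for 2 h; potency is for protecting the cells against peroxide damage rather than for killing them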
[3] = biological target: Luciferin 4-monooxygenase (Photinus pyralis, UniProt P08659); experiment: inhibition of purified Photinus pyralis luciferase – biochemical, luminescence, dose response (AID 1891)
Sequence of Luciferin 4-monooxygenase (P08659 whole entry): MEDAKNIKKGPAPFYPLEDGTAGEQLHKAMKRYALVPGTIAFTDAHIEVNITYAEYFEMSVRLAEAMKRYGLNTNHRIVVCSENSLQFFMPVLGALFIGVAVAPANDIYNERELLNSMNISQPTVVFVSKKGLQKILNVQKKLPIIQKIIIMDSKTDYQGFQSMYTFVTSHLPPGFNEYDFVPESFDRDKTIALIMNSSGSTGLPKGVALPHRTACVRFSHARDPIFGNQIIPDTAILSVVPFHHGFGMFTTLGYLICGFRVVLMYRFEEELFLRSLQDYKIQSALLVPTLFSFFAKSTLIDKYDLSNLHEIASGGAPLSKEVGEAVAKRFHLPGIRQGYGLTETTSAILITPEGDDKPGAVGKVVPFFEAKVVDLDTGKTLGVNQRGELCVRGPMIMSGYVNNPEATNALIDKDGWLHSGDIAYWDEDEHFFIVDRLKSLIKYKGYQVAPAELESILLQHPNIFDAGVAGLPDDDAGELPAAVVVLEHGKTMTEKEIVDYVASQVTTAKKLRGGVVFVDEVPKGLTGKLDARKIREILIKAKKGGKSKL

[4] = Luminescence Cell-Based Dose Confirmation HTS to Identify Inhibitors of Platelet Dense Granule Release. [Related pubchem assays: 1663 (Primary HTS), 1678 (Summary of Project)]; type: functional
[5] = biological target: T3, Heat shock factor protein 1 (Mus musculus, UniProt P38532); experiment: enhancement of HSF1-driven luciferase signal – cell-based, NIH3T3, luminescence, dose retest, confirmation (AID 435004); type: functional;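 further: stress induced by proteasome inhibitor MG132 added 30 min after compound; luciferase reporter driven by HSF1 response element in NIH3T3 cells; actives raise luminescence as potentiators of the MG132 stress response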
T3 sequence (P38532 whole entry): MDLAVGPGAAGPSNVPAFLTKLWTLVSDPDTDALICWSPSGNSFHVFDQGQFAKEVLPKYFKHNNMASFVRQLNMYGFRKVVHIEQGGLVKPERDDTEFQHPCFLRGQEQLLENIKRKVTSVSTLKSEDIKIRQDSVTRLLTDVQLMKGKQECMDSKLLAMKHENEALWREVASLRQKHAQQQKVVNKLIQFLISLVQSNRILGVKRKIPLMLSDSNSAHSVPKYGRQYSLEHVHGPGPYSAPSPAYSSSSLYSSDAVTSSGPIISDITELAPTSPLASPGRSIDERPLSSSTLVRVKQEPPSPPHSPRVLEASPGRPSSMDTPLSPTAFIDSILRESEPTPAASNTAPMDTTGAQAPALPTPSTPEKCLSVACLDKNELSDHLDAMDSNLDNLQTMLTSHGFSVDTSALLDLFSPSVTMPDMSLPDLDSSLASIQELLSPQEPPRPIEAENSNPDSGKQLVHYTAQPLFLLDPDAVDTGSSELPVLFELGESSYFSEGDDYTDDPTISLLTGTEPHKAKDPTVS

[6] = luciferase reporter signal suppression in cells – H4 neuroglioma cells, luminescence, dose response (AID 1990); type: functional, cell-based
[7] = Luminescence Cell-Based Dose Response HTS to Identify Inhibitors of 5'UTR Stem-Loop Driven Prion Protein mRNA Translation in H4 Neuroglioblastoma Cells. [Related pubchem assays: 1827 (Project Summary), 1813 (Primary HTS)]; type: functional
[8] = alpha-synuclein stem-loop luciferase translation blockers – H4 neuroglioma cells, luminescence, confirmation (AID 1988); type: functional, cell-based
[9] = microbe, parasite or virus in culture; type: functional; conditions: Mycobacterium tuberculosis
[10] = Luminescence Cell-Based Dose Retest to Confirm Inhibitors of Cancer Stem Cells. [Related pubchem assays (depositor defined):AID2717, AID2721]; type: functional; conditions: Homo sapiens
Cytochrome P450 2C19 = Cytochrome P450 2C19 (Homo sapiens, UniProt P33261); experiment: Cytochrome panel assay with activity outcomes. Panel member name: p450-cyp2c19 Compounds with AC50 equal or less than 10 uM are considered active; type: functional; conditions: read-out: AC50
Sequence of Cytochrome P450 2C19 (P33261 whole entry): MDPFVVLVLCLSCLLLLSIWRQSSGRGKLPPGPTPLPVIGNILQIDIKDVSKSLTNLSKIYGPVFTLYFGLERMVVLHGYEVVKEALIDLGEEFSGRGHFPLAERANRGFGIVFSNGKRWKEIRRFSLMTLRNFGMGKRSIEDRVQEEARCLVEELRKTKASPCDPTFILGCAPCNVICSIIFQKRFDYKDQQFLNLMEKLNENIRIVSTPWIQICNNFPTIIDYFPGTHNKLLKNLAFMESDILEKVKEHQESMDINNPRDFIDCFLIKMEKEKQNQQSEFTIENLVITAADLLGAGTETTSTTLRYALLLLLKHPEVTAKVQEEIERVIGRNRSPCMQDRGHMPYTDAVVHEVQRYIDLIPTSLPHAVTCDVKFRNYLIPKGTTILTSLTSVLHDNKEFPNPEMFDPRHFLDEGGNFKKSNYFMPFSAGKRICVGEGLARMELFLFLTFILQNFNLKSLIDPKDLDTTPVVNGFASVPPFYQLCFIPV

Cytochrome P450 3A4 = Cytochrome P450 3A4 (Homo sapiens, UniProt P08684);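 further: CYP3A4 tested as one member of a cytochrome P450 panel screen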
Sequence of Cytochrome P450 3A4 (P08684 whole entry): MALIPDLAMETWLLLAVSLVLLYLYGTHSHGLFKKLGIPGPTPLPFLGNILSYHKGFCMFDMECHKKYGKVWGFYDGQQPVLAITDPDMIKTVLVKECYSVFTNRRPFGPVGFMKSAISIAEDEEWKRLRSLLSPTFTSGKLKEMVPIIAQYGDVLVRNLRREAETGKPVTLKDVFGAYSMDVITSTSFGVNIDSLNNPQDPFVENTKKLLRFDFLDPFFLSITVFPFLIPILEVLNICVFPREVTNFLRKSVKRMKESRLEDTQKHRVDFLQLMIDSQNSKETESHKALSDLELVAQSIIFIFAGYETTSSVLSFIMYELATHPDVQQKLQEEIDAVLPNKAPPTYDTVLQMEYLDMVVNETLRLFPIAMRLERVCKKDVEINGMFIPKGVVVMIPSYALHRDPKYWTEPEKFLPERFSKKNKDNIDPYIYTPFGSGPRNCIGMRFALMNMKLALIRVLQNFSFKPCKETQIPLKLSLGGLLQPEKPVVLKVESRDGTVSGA

[11] = biological target: T4, Ubiquitin-conjugating enzyme E2 N (Homo sapiens, UniProt P61088); type: functional;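 further: Dose-response confirmation in a TR-FRET assay detecting UBC13-driven polyubiquitin chain formation, inhibition measured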
T4 sequence (P61088 whole entry): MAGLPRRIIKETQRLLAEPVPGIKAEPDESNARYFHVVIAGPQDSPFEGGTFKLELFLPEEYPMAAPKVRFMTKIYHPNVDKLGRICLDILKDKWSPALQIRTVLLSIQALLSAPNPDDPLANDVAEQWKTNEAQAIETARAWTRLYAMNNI

Sequence of Cytochrome P450 2D6 (P10635 whole entry): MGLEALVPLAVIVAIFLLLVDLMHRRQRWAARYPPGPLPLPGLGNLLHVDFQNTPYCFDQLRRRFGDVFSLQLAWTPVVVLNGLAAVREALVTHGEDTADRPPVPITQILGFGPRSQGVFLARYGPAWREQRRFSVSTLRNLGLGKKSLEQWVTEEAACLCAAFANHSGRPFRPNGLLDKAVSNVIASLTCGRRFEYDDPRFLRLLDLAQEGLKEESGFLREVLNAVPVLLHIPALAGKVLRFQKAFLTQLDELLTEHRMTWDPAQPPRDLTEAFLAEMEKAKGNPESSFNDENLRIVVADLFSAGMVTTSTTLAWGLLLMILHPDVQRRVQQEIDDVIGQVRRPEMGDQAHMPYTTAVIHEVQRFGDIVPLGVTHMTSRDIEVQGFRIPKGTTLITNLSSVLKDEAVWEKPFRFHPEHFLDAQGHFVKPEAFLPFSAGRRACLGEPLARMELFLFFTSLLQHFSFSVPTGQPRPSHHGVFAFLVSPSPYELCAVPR

O=[N+]([O-])c1cc(-n2cnnn2)ccc1N1CCC(Cc2ccccc2)CC1
AC50 [1]: 4.38 µM (active)

N#Cc1cccc(-c2nc3cnc(Nc4ccccc4)nc3n(C[C@H]3CCCO3)c2=O)c1
AC50 (Cytochrome P450 2D6): 1 µM (inconclusive)
AC50 (Cytochrome P450 1A2): 2 µM (inconclusive)
AC50 (Cytochrome P450 2C9): 10 µM (inconclusive)

CC1CCN(c2nc3nonc3nc2Nc2ccc(F)cc2)CC1
IC50 [2]: 11.7 µM (not active)

CC(C)n1nc(C(=O)OCC(=O)c2c[nH]c3ccccc23)c2ccccc2c1=O
IC50 [2]: 0.91 µM (not active)
IC50 (H9c2): 27.3 µM (active)

Oc1nc(NCc2ccccc2)nc2c1CCCC2
IC50 (H9c2): 52.3 µM (inactive)

CN(CC(=O)Nc1ccccc1Br)C(=O)C(Cc1ccccc1)NC(=O)c1ccccc1 (stereo not drawn)
EC50 [3]: > 112 µM (not active)
EC50 [4]: > 112 µM (not active)

Cc1ccc(S(=O)(=O)N(C)c2ccc(C)c([N+](=O)[O-])c2)cc1
IC50 [2]: 18.8 µM (not active)
EC50 [5]: > 260 µM (inactive)

CCc1c(C2(O)CCCCC2)[nH]c2ccc(C(F)(F)F)cc12
EC50 [6]: 60.5 µM (active)
EC50 [7]: > 120 µM (not active)
EC50 [8]: 8.44 µM (active)
CC50 [9]: 27.1 µM (active)
AC50 [10]: 2.64 µM (active)

O=C(NCC1CCCO1)c1cc([N+](=O)[O-])ccc1N1CCC(Cc2ccccc2)CC1 (stereo not drawn)
AC50 [1]: 4.28 µM (active)

COc1ccc(CCNC(=O)C[S+]([O-])Cc2nc(-c3ccc(C)cc3)oc2C)cc1OC (stereo not drawn)
EC50 [3]: > 112 µM (not active)
EC50 [4]: > 112 µM (not active)

O=C(COC(=O)Cc1nnc(O)c2ccccc12)Nc1ccc(Cl)cn1
IC50 (H9c2): > 79 µM (inactive)

CN(C)S(=O)(=O)c1ccc(Cl)c(NC(=O)CSc2nc3ccccc3c(=O)n2CCCN2CCOCC2)c1
EC50 [3]: > 112 µM (not active)
EC50 [4]: 17.8 µM (active)

COC(=O)[C@@]1(Cc2ccccc2)[C@H]2c3cc(C(=O)N4CCCC4)n(CCN4CNCC4=O)c3C[C@H]2CN1C(=O)c1ccccc1
AC50 (Cytochrome P450 2C19): 39.8 µM (inconclusive)
AC50 (Cytochrome P450 2D6): 39.8 µM (inconclusive)
AC50 (Cytochrome P450 1A2): 25.1 µM (inconclusive)
AC50 (Cytochrome P450 3A4): 1.58 µM (inconclusive)

COc1ccccc1N(C)S(=O)(=O)c1ccc(C(=O)Nc2ccc3nc(C)sc3c2)cc1
CC50 [9]: 38.1 µM (active)

Cc1c(CCC(=O)NCCCn2ccnc2)c(=O)oc2c(C)c3occ(C(C)(C)C)c3cc12
CC50 [9]: 22.1 µM (active)

CCOC(=O)C1CCN(C(c2cc3c(C)ccc(C)c3nc2O)c2nnnn2C2CCCCC2)CC1 (stereo not drawn)
IC50 (H9c2): > 79 µM (inactive)

Cc1ccc(C(C(=O)NCC2CCCO2)N(C(=O)c2snc(C(N)=O)c2N)c2ccc(C)c(C)c2)o1 (stereo not drawn)
IC50 [11]: > 20 µM (inactive)

Cn1cnc([N+](=O)[O-])c1Nc1ccccc1O
EC50 [3]: > 112 µM (not active)
EC50 [4]: > 112 µM (not active)

FC(F)(F)c1nnc2ccc(NCc3ccccc3)nn12
IC50 [2]: 2.23 µM (active)

CCCc1nc2oc(C(=O)OCC)c(N)c2c2c1COC(C)(C)C2
CC50 [9]: > 40 µM (active)

Cc1cnc(C(=O)OCC(=O)Nc2ccc(Cl)cc2Cl)cn1
EC50 [3]: > 112 µM (not active)
EC50 [4]: 14.8 µM (active)

CC(C)C(=O)Nc1ncc(Cc2ccc(Cl)cc2)s1
IC50 [2]: 5.63 µM (not active)
